# Values quoted from earlier work as cited in patent publication US20210393726A1, “USE OF EXTRACT OF VEGETATION WATERS IN THE REGENERATION OF EPITHELIAL TISSUE” (FATTORIA LA VIALLAD DI GIANNI, ANTONIO E BANDINO LO FRANCO …, priority 2017, published 2021).
# Details: high concentrations, up to 250-500 mg/kg/day
compound,measurement,value
"OCCc1ccc(O)c(O)c1 [Hydroxytyrosol, hydroxytyrosol]",toxic effect on in vivo administration,does not have any toxic effect
